Assay results taken from patent US20170252442A1, “PHOTOHEXER COMPOUNDS AND PHARMACEUTICAL COMPOSITION AND USE THEREOF” (RAINBOW PHARMATECH LLC, priority 2014, published 2017).

Assays:
[1] = Storage stability determination; format: physicochemical; settings: 3 months of storage in dark at 2-4
Procedure: The storage stability of Photohexer-1 and Photohexer-2 was determined by conventional methods in the art.

7721 cells = test: MTT assay, photodynamic therapy on 7721 cells; format: cell-based, human
Description: (§1) The cells in logarithmic growth phase were collected and inoculated on 24-well culture plates. When reaching 70%-80% confluence, cells were divided randomly into the following groups: control (the parallel control group without photosensitizer and irradiation), irradiation (irradiation treatment alone without photosensitizer); (photosensitizer treatment alone without irradiation), photodynamic treatment (treatment by photosensitizer in combination with irradiation). For the photosensitizer alone treatment group and photodynamic treatment group, an appropriate amount of Photohexer-1 (P-1) or Photohexer-2 (P-2) was respectively added away from light to give a final concentration of 0.8, 1.6, 3.2, 6.4 μM. Each group set 3 replicates. Cells were incubated with the active agent, different treatments were carried out according to the grouping. […] After treatment and digestion of each group of cells, it was inoculated into a 96-well plate at 100 μL/well, and four wells were set for each treatment. MTT assay was performed after 24 h from inoculation: 20 μL MTT solution was added to each well under the condition away from light, and the culture was continued for 4 hours. 150 μL DMSO was added to each well after discarding the supernatant. After 15 min of dissolution, the absorbance value (OD value) was measured using a microplate reader and the relative survival rate of cells was calculated according to the following formula: […]

MDA-MB-231 cells = test: MTT assay, photodynamic therapy on MDA-MB-231 cells; format: cell-based, human
Description: as §1

the cell lines = test: MTT assay, summary over the cell lines (photosensitizer alone); format: cell-based; settings: without light irradiation; selected drug concentration range (0.8-6.4 μM)
Description: The cells in logarithmic growth phase were collected and inoculated on 24-well culture plates. When reaching 70%-80% confluence, cells were divided randomly into the following groups: control (the parallel control group without photosensitizer and irradiation), irradiation (irradiation treatment alone without photosensitizer); (photosensitizer treatment alone without irradiation), photodynamic treatment (treatment by photosensitizer in combination with irradiation). For the photosensitizer alone treatment group and photodynamic treatment group, an appropriate amount of Photohexer-1 (P-1) or Photohexer-2 (P-2) was respectively added away from light to give a final concentration of 0.8, 1.6, 3.2, 6.4 μM. Each group set 3 replicates. Cells were incubated with the active agent, different treatments were carried out according to the grouping. Three different light intensities were selected for the photodynamic treatment group, which were 2.6, 5.2 and 12.4 J/cm^2, respectively. After treatment and digestion of each group of cells, it was inoculated into a 96-well plate at 100 μL/well, and four wells were set for each treatment. […] After 15 min of dissolution, the absorbance value (OD value) was measured using a microplate reader and the relative survival rate of cells was calculated according to the following formula: […]

Caco2 cells = test: MTT assay, photodynamic therapy on Caco2 cells; format: cell-based, human
Description: as §1

CT26 cells = test: MTT assay, photodynamic therapy on CT26 cells; format: cell-based, murine
Description: as §1

Eca-109 cells = test: MTT assay, photodynamic therapy on Eca-109 cells; format: cell-based, human
Description: as §1

4T1 transplanted tumors = test: Tumor-inhibition effect of P1 and P2-PDT on 4T1 xenografted mice; format: in vivo, Balb/c mice
Procedure: Experimental groups: blank control (2 mice), P-1 alone treatment (4 mg/kg, 8 mice), P-2 alone treatment (2 mg/kg, 8 mice), P-1 treatment (2 mg/kg, 4 mg/kg, 8 mice/group) combined with light irradiations, P-2 treatment (1 mg/kg, 2 mg/kg, 4 mg/kg, 8 mice/group) combined with light irradiations, 66 Balb/c mice in total.

[2] = 0.8 μM alone treatment, without irradiation
[3] = 0.8 μM combined with 2.6 J/cm^2 light irradiation
[4] = 0.8 μM combined with 5.2 J/cm^2 light irradiation
[5] = 0.8 μM combined with 10.4 J/cm^2 light irradiation
[6] = 1.6 μM alone treatment, without irradiation
[7] = 1.6 μM combined with 2.6 J/cm^2 light irradiation
[8] = 1.6 μM combined with 5.2 J/cm^2 light irradiation
[9] = 1.6 μM combined with 10.4 J/cm^2 light irradiation
[10] = 3.2 μM alone treatment, without irradiation
[11] = 3.2 μM combined with 2.6 J/cm^2 light irradiation
[12] = 3.2 μM combined with 5.2 J/cm^2 light irradiation
[13] = 3.2 μM combined with 10.4 J/cm^2 light irradiation
[14] = 6.4 μM alone treatment, without irradiation
[15] = 6.4 μM combined with 2.6 J/cm^2 light irradiation
[16] = 6.4 μM combined with 5.2 J/cm^2 light irradiation
[17] = 6.4 μM combined with 10.4 J/cm^2 light irradiation

Question: Which results are given for `C=CC1=C(C)c2cc3[nH]c(cc4nc(cc5[nH]c(cc1n2)c(C)c5CCC(=O)[O-])C(CCC(=O)[O-])=C4C)c(C)c3C(C)OCCCCCC.[Na+].[Na+]` (stereo not shown) [Photohexer P-1, 2-(1-hexyloxyethyl)-6,7-bis(propionatesodium)-1,3,5,8-tetramethyl-4-vinylporphyrin]?
Answer: storage stability (content change by HPLC test) [1]: no content change; Cell survival rate (7721 cells; [2]): 101.56 ± 4.08%; Cell survival rate (7721 cells; [3]): 97.88 ± 4.08%; Cell survival rate (7721 cells; [4]): 95.52 ± 3.42%; Cell survival rate (7721 cells; [5]): 94.75 ± 4.13%; Cell survival rate (7721 cells; [6]): 100.75 ± 4.14%; Cell survival rate (7721 cells; [7]): 93.31 ± 3.99%; Cell survival rate (7721 cells; [8]): 92.36 ± 2.91%; Cell survival rate (7721 cells; [9]): 91.35 ± 3.59%; Cell survival rate (7721 cells; [10]): 97.51 ± 3.98%; Cell survival rate (7721 cells; [11]): 94.92 ± 3.80%; Cell survival rate (7721 cells; [12]): 92.13 ± 2.77%; Cell survival rate (7721 cells; [13]): 88.59 ± 2.96%; Cell survival rate (7721 cells; [14]): 96.52 ± 3.94%; Cell survival rate (7721 cells; [15]): 94.42 ± 3.87%; Cell survival rate (7721 cells; [16]): 90.25 ± 4.07%; Cell survival rate (7721 cells; [17]): 84.98 ± 1.97%; toxic and side effects (7721 cells; alone or in combination with light irradiation): no obvious toxic and side effects; Cell survival rate (MDA-MB-231 cells; [2]): 97.82 ± 3.12%; Cell survival rate (MDA-MB-231 cells; [3]): 93.29 ± 3.66%; Cell survival rate (MDA-MB-231 cells; [4]): 90.67 ± 4.08%; Cell survival rate (MDA-MB-231 cells; [5]): 88.23 ± 4.09%; Cell survival rate (MDA-MB-231 cells; [6]): 91.07 ± 2.02%; Cell survival rate (MDA-MB-231 cells; [7]): 81.63 ± 2.87%; Cell survival rate (MDA-MB-231 cells; [8]): 76.33 ± 2.91%; Cell survival rate (MDA-MB-231 cells; [9]): 71.13 ± 3.79%; Cell survival rate (MDA-MB-231 cells; [10]): 75.52 ± 1.07%; Cell survival rate (MDA-MB-231 cells; [11]): 70.24 ± 2.03%; Cell survival rate (MDA-MB-231 cells; [12]): 68.08 ± 1.43%; Cell survival rate (MDA-MB-231 cells; [13]): 61.29 ± 2.27%; Cell survival rate (MDA-MB-231 cells; [14]): 70.10 ± 0.99%; Cell survival rate (MDA-MB-231 cells; [15]): 62.22 ± 1.04%; Cell survival rate (MDA-MB-231 cells; [16]): 64.88 ± 1.07%; Cell survival rate (MDA-MB-231 cells; [17]): 56.27 ± 1.06%; cytotoxicity of alone treatment (the cell lines): did not produce significant cytotoxicity; Cell survival rate (Caco2 cells; [2]): 99.34 ± 3.40%; Cell survival rate (Caco2 cells; [3]): 95.31 ± 3.86%; Cell survival rate (Caco2 cells; [4]): 93.10 ± 3.96%; Cell survival rate (Caco2 cells; [5]): 88.18 ± 4.24%; Cell survival rate (Caco2 cells; [6]): 97.36 ± 2.42%; Cell survival rate (Caco2 cells; [7]): 91.33 ± 2.69%; Cell survival rate (Caco2 cells; [8]): 89.01 ± 2.88%; Cell survival rate (Caco2 cells; [9]): 87.63 ± 3.49%; Cell survival rate (Caco2 cells; [10]): 95.34 ± 1.67%; Cell survival rate (Caco2 cells; [11]): 89.49 ± 2.15%; Cell survival rate (Caco2 cells; [12]): 87.46 ± 1.67%; Cell survival rate (Caco2 cells; [13]): 84.32 ± 2.76%; Cell survival rate (Caco2 cells; [14]): 83.33 ± 1.24%; Cell survival rate (Caco2 cells; [15]): 81.65 ± 1.07%; Cell survival rate (Caco2 cells; [16]): 74.26 ± 1.14%; Cell survival rate (Caco2 cells; [17]): 66.34 ± 1.17%; toxic side effects compared between P-1 and P-2 (CT26 cells): higher than those of P-2; Cell survival rate (CT26 cells; [2]): 93.23 ± 3.43%; Cell survival rate (CT26 cells; [3]): 91.63 ± 3.46%; Cell survival rate (CT26 cells; [4]): 82.12 ± 4.98%; Cell survival rate (CT26 cells; [5]): 82.39 ± 4.63%; Cell survival rate (CT26 cells; [6]): 87.15 ± 2.45%; Cell survival rate (CT26 cells; [7]): 62.86 ± 2.29%; Cell survival rate (CT26 cells; [8]): 55.88 ± 2.95%; Cell survival rate (CT26 cells; [9]): 44.00 ± 3.29%; Cell survival rate (CT26 cells; [10]): 56.13 ± 1.69%; Cell survival rate (CT26 cells; [11]): 49.48 ± 2.06%; Cell survival rate (CT26 cells; [12]): 44.86 ± 1.57%; Cell survival rate (CT26 cells; [13]): 41.00 ± 2.66%; Cell survival rate (CT26 cells; [14]): 44.05 ± 1.26%; Cell survival rate (CT26 cells; [15]): 36.03 ± 1.17%; Cell survival rate (CT26 cells; [16]): 30.01 ± 1.07%; Cell survival rate (CT26 cells; [17]): 28.55 ± 1.47%; photosensitive toxicity compared between P-1 and P-2 (Eca-109 cells): significantly stronger toxicity than that of P-2; Cell survival rate (Eca-109 cells; [2]): 99.32 ± 3.43%; Cell survival rate (Eca-109 cells; [3]): 84.64 ± 3.79%; Cell survival rate (Eca-109 cells; [4]): 74.34 ± 4.23%; Cell survival rate (Eca-109 cells; [5]): 60.09 ± 4.54%; Cell survival rate (Eca-109 cells; [6]): 97.28 ± 2.48%; Cell survival rate (Eca-109 cells; [7]): 64.63 ± 2.39%; Cell survival rate (Eca-109 cells; [8]): 66.40 ± 3.12%; Cell survival rate (Eca-109 cells; [9]): 41.05 ± 3.47%; Cell survival rate (Eca-109 cells; [10]): 92.81 ± 1.37%; Cell survival rate (Eca-109 cells; [11]): 44.02 ± 2.05%; Cell survival rate (Eca-109 cells; [12]): 41.43 ± 1.27%; Cell survival rate (Eca-109 cells; [13]): 36.89 ± 2.26%; Cell survival rate (Eca-109 cells; [14]): 80.68 ± 1.04%; Cell survival rate (Eca-109 cells; [15]): 42.24 ± 1.01%; Cell survival rate (Eca-109 cells; [16]): 37.97 ± 1.04%; Cell survival rate (Eca-109 cells; [17]): 35.04 ± 1.34%; toxic effects of photosensitizer alone (4T1 transplanted tumors; 4 mg/kg alone, without irradiation, 4T1 tumor-bearing mice): did not show significant toxic effects; tumor inhibition rate (4T1 transplanted tumors; 4 mg/kg combined with light irradiation (50 J/cm^2), day 22 after treatment, 4T1 tumor-bearing mice): 25.6%; photosensitizer activity on growth of 4T1 transplanted tumors (4T1 transplanted tumors; combined with 50 J/cm^2 irradiation): obvious dose-dependent activity
